Measurements taken from USRE47689E1, “Compounds for treating spinal muscular atrophy” (PTC Therapeutics, Inc., priority 2011, dated 2019).
Read-outs that look alike come from different tables or passages of the source.

What was measured:
[1] = tested on: SMN2 minigene (full length SMN2 minigene mRNA containing SMN2 exon 7); experiment: SMN2 minigene mRNA splicing RT-qPCR assay in cultured cells; assay type: cell-based, human; details: Homo sapiens, HEK293-H, read-out: EC1.5x for production of full length SMN2 mRNA
Outline: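 Full-length SMN2 minigene mRNA (exon 7 included), minigene-specific and not endogenous SMN, quantified by RT-qPCR multiplexed with GAPDH in stably transfected HEK293H cells after 24 h compound exposure at 37° C. Abundance from efficiency-corrected Ct, normalized to GAPDH and vehicle; EC1.5x reported as star bins.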

Smn protein = Smn protein assay in cultured cells (SMN HTRF); assay type: cell-based, human; details: 48 hours; for maximum fold (Fold) increase of Smn protein: SMA patient fibroblast cells, 7-point concentration data, fold increase relative to vehicle control (SMN HTRF); for EC1.5x (concentration giving 1.5-fold Smn protein increase): SMA Type 1 patient fibroblast cells (GM03813), 7-point concentration curve, SMN HTRF, concentration producing 1.5 times Smn protein vs DMSO vehicle control, read-out: EC1.5x for Smn protein expression
Outline: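 Smn in SMA fibroblast lysates, measured by anti-SMN HTRF after 48 h compound exposure; EC1.5x from fold change over vehicle.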

[2] = HEK293H cells stably transfected with SMN2-A minigene, 24 hours, 7-point concentration curve, 1.5-fold relative to vehicle-treated cells

Row | melting point [°C] | SMILES | EC (1.5-fold) [1, 2] [µM] | maximum fold (Fold) increase of Smn protein (Smn protein) | EC (1.5-fold) ([1]; 24 h) [µM] | EC1.5x (concentration giving 1.5-fold Smn protein increase) (Smn protein) [nM]
1 | 143 to 145 | COc1ccc(-c2cc3ccc(N4CCN[C@H](C)C4)cc3oc2=O)cc1OC [Compound 382, 3-(3,4-dimethoxyphenyl)-7-[(3R)-3-methylpiperazin-1-yl]-2H-chromen-2-one] | 1 to 3 | * (maximum fold increase of ≤1.2) |  | 
2 | 266 to 276 | C[C@@H]1CN(c2cc(F)c3cc(-c4cn5cccc(Cl)c5n4)c(=O)oc3c2)CCN1 [Compound 390, 3-(8-chloroimidazo[1,2-a]pyridin-2-yl)-5-fluoro-7-[(3R)-3-methylpiperazin-1-yl]-2H-chromen-2-one] | 0.1 to 0.3 | *** (fold increase between >1.35 and ≤1.5) |  | 
3 | 252 to 262 | Cc1cc(F)c2nc(-c3cc4ccc(N5CCN(C)CC5)cc4oc3=O)cn2c1 [Compound 353, 3-(8-fluoro-6-methylimidazo[1,2-a]pyridin-2-yl)-7-(4-methylpiperazin-1-yl)-2H-chromen-2-one] | < 0.1 | **** (fold increase between >1.5 and ≤1.65) |  | 1000 to 3000
4 | 240 to 242 | Cc1cn2cc(-c3cc4ccc(N5CCN(C(C)C)CC5)cc4oc3=O)nc2c(C)n1 [Compound 792, 3-(6,8-dimethylimidazo[1,2-a]pyrazin-2-yl)-7-[4-(propan-2-yl)piperazin-1-yl]-2H-chromen-2-one] | < 0.1 | **** (fold increase between >1.5 and ≤1.65) |  | < 300
5 | 212 to 218 | Cc1nc(Cl)cn2cc(-c3cc4ccc(N5CCCN(C)CC5)cc4oc3=O)nc12 [Cpd 712, 3-(6-chloro-8-methylimidazo[1,2-a]pyrazin-2-yl)-7-(4-methyl-1,4-diazepan-1-yl)-2H-chromen-2-one] | < 0.1 | ** (fold increase between >1.2 and ≤1.35) |  | 
6 | 162 to 164 | COc1cccc(-c2cc3ccc(N4CCN(C)CC4)cc3oc2=O)n1 [Compound 257, 3-(6-methoxypyridin-2-yl)-7-(4-methylpiperazin-1-yl)-2H-chromen-2-one] | 1 to 3 | * (maximum fold increase of ≤1.2) |  | 
7 | 173 to 176 | Cc1cn2cc(-c3cc4ccc(N5C[C@@H](O)[C@H](N(C)C)C5)cc4oc3=O)cc2c(C)n1 [Compound 734, 7-[(3R,4R)-3-(dimethylamino)-4-hydroxypyrrolidin-1-yl]-3-(1,3-dimethylpyrrolo[1,2-a]pyrazin-7-yl)-2H-chromen-2-one] | < 0.1 | **** (fold increase between >1.5 and ≤1.65) |  | < 300
8 | 208 to 212 | Cc1ccc2nc(-c3cc4ccc(N5CCN[C@@H](C)C5)cc4oc3=O)cn2n1 [Compound 624, 3-(6-methylimidazo[1,2-b]pyridazin-2-yl)-7-[(3S)-3-methylpiperazin-1-yl]-2H-chromen-2-one] | < 0.1 | *** (fold increase between >1.35 and ≤1.5) |  | 
9 | 147 to 151 | Cc1cn2cc(-c3cc4ccc(CCCCN5CCC[C@@H]5CO)cc4oc3=O)nc2c(C)n1 [Compound 904, 3-(6,8-dimethylimidazo[1,2-a]pyrazin-2-yl)-7-{4-[(2R)-2-(hydroxymethyl)pyrrolidin-1-yl]butyl}-2H-chromen-2-one] | 0.1 to 0.3 | **** (fold increase between >1.5 and ≤1.65) |  | 300 to 1000
10 | 185 to 188 | Cc1cn2cc(-c3cc4ccc(N5CCN6C[C@H](O)C[C@H]6C5)cc4oc3=O)cc2c(C)n1 [Compound 767, 3-(1,3-dimethylpyrrolo[1,2-a]pyrazin-7-yl)-7-[(7R,8aS)-7-hydroxyhexahydropyrrolo[1,2-a]pyrazin-2(1H)-yl]-2H-chromen-2-one] | < 0.1 | ***** (fold increase >1.65) |  | < 300
11 | 246 to 252 | Cc1cn2cc(-c3cc4ccc(N5CCN(CCO)CC5)cc4oc3=O)nc2cn1 [Compound 837, 7-[4-(2-hydroxyethyl)piperazin-1-yl]-3-(6-methylimidazo[1,2-a]pyrazin-2-yl)-2H-chromen-2-one] | < 0.1 | ***** (fold increase >1.65) |  | < 300
12 | 163 to 166 | CNCCCc1ccc2cc(-c3cc(F)c4nc(C)cn4c3)c(=O)oc2c1 [Compound 913, 3-(8-fluoro-2-methylimidazo[1,2-a]pyridin-6-yl)-7-[3-(methylamino)propyl]-2H-chromen-2-one] | < 0.1 | ***** (fold increase >1.65) |  | < 300
13 | 150 to 156 | CN1CCN(c2ccc3cc(-c4cccc(C(F)(F)F)c4)c(=O)oc3c2)CC1 [Compound 11, 7-(4-methylpiperazin-1-yl)-3-[3-(trifluoromethyl)phenyl]-2H-chromen-2-one] | 3 to 30 |  |  | 
14 | 190 to 193 | Cc1cccn2cc(-c3cc4ccc(N5CCNCC5)cc4oc3=O)nc12 [Compound 44, 3-(8-methylimidazo[1,2-a]pyridin-2-yl)-7-(piperazin-1-yl)-2H-chromen-2-one] | 0.3 to 1 |  |  | 
15 | 220 to 226 | O=c1oc2cc(OC3CCNCC3)ccc2cc1-c1nc2ccccc2s1 [Compound 46, 3-(1,3-benzothiazol-2-yl)-7-(piperidin-4-yloxy)-2H-chromen-2-one] | 0.3 to 1 |  |  | 
16 | 220 to 223 | Cc1cn2cc(-c3cc4ccc(N5CCN[C@H](C)C5)cc4oc3=O)cc2cn1 [Compound 637, 7-[(3R)-3-methylpiperazin-1-yl]-3-(3-methylpyrrolo[1,2-a]pyrazin-7-yl)-2H-chromen-2-one] | < 0.1 |  |  | 

Row | SMILES | melting point [°C] | EC (1.5-fold) [1, 2] [µM] | maximum fold (Fold) increase of Smn protein (Smn protein) | EC (1.5-fold) ([1]; 24 h) [µM] | EC1.5x (concentration giving 1.5-fold Smn protein increase) (Smn protein) [nM]
17 | O=c1oc2cc(N3CCNCC3)ccc2cc1-c1cccc(F)n1 [Compound 380, 3-(6-fluoropyridin-2-yl)-7-(piperazin-1-yl)-2H-chromen-2-one] | 196 to 198 |  | ** (fold increase between >1.2 and ≤1.35) | 0.3 to 1 | 
18 | O=c1oc2cc(N3CCNCC3)ccc2cc1-c1ccnc(Cl)c1 [Compound 180, 3-(2-chloropyridin-4-yl)-7-(piperazin-1-yl)-2H-chromen-2-one] | 190 to 192 |  | * (maximum fold increase of ≤1.2) | < 0.1 | 
19 | O=c1oc2cc(N3CCNCC3)ccc2cc1-c1ccc(Cl)cn1 [Compound 113, 3-(5-chloropyridin-2-yl)-7-(piperazin-1-yl)-2H-chromen-2-one] | 180 to 182 |  |  | 3 to 30 | 
20 | O=c1oc2cc(N3CCNCC3)ccc2cc1Nc1ccccn1 [Cpd 32, 7-(piperazin-1-yl)-3-(pyridin-2-ylamino)-2H-chromen-2-one] | 191 to 194 |  |  | 3 to 30 | 
